Key:
YKL-5-124 = compound: C=CC(=O)Nc1ccc(C(=O)Nc2[nH]nc3c2CN(C(=O)N[C@H](CN(C)C)c2ccccc2)C3(C)C)cc1 [YKL-5-124]; assay: GR value, 72 h; higher = faster growth (1 = untreated, <0 = killing);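 further: breast cancer and non-malignant breast epithelial lines, nine half-log doses, viable cells counted by Hoechst and LIVE/DEAD dye imaging versus time-zero plates and DMSO controls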
Flavopiridol [1] = compound: T1, CN1CC[C@H](c2c(O)cc(O)c3c(=O)cc(-c4ccccc4Cl)oc23)[C@H](O)C1 [Flavopiridol]; assay: as above
[2] = compound: CCc1cnn2c(NCc3ccc[n+]([O-])c3)cc(N3CCCC[C@H]3CCO)nc12; assay: as above
THZ531 = compound: CN(C)C/C=C/C(=O)Nc1ccc(C(=O)N2CCC[C@@H](Nc3ncc(Cl)c(-c4c[nH]c5ccccc45)n3)C2)cc1 [THZ531]; assay: as above
LEE011/Ribociclib = compound: CN(C)C(=O)c1cc2cnc(Nc3ccc(N4CCNCC4)cn3)nc2n1C1CCCC1 [LEE011/Ribociclib]; assay: as above
BSJ-03-123 = compound: CC(=O)c1c(C)c2cnc(Nc3ccc(N4CCN(CCOCCOCCOCCNC(=O)COc5cccc6c5C(=O)N(C5CCC(=O)NC5=O)C6=O)CC4)cn3)nc2n(C2CCCC2)c1=O [BSJ-03-123]; assay: as above
[3] = compound: CCN1CCN(Cc2ccc(Nc3ncc(F)c(-c4cc(F)c5nc(C)n(C(C)C)c5c4)n3)nc2)CC1; assay: as above
[4] = compound: CC(=O)c1c(C)c2cnc(Nc3ccc(N4CCNCC4)cn3)nc2n(C2CCCC2)c1=O; assay: as above
Taselisib/GDC0032 = compound: Cc1nc(-c2cn3c(n2)-c2ccc(-c4cnn(C(C)(C)C(N)=O)c4)cc2OCC3)n(C(C)C)n1 [Taselisib/GDC0032]
Luminespib/NVP-AUY922 = compound: CCNC(=O)c1noc(-c2cc(C(C)C)c(O)cc2O)c1-c1ccc(CN2CCOCC2)cc1 [Luminespib/NVP-AUY922]
Olaparib/AZD2281 = compound: O=C(c1cc(Cc2n[nH]c(=O)c3ccccc23)ccc1F)N1CCN(C(=O)C2CC2)CC1 [Olaparib/AZD2281]
Paclitaxel = compound: CC(=O)O[C@H]1C(=O)[C@@]2(C)[C@H]([C@H](OC(=O)c3ccccc3)[C@]3(O)C[C@H](OC(=O)[C@H](O)[C@@H](NC(=O)c4ccccc4)c4ccccc4)C(C)=C1C3(C)C)[C@]1(OC(C)=O)CO[C@@H]1C[C@@H]2O [Paclitaxel]
Flavopiridol [5] = compound: T1, Flavopiridol
Doxorubicin = compound: COc1cccc2c1C(=O)c1c(O)c3c(c(O)c1C2=O)C[C@@](O)(C(=O)CO)C[C@@H]3O[C@H]1C[C@H](N)[C@H](O)[C@H](C)O1 [Doxorubicin]
BSJ-01-175 = compound: CN(C)C/C=C/C(=O)Nc1ccc(O[C@@H]2CCC[C@@H](Nc3ncc(Cl)c(-c4c[nH]c5ccccc45)n3)C2)cc1 [BSJ-01-175]
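Wherever GR50, 72 h is given: breast cancer and non-malignant breast epithelial cell lines, Deep Dye Drop or Dye Drop imaging, nine half-log doses, GR normalized to time-zero plates and DMSO-only controls.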

HCC1187 gave a GR value (YKL-5-124; 0.001 µM) of 0.478 GR, a GR value (YKL-5-124; 0.003162 µM) of 0.459 GR and a GR value (YKL-5-124; 0.01 µM) of 0.209 GR. It also gave a GR value (YKL-5-124; 0.03162 µM) of 0.309 GR, a GR value (YKL-5-124; 0.1 µM) of 0.195 GR and a GR value (YKL-5-124; 0.3162 µM) of 0.222 GR. It also gave a GR value (YKL-5-124; 1 µM) of 0.0281 GR, a GR value (YKL-5-124; 3.162 µM) of -0.0235 GR and a GR value (YKL-5-124; 10 µM) of -0.529 GR. It also gave a GR value (Flavopiridol [1]; 0.0001 µM) of 0.966 GR, a GR value (Flavopiridol [1]; 0.0003162 µM) of 0.963 GR and a GR value (Flavopiridol [1]; 0.001 µM) of 0.368 GR. For the same cell line, the GR value (Flavopiridol [1]; 0.003162 µM) was 1 GR, the GR value (Flavopiridol [1]; 0.01 µM) was 0.995 GR and the GR value (Flavopiridol [1]; 0.03162 µM) was 0.961 GR. It also gave a GR value (Flavopiridol [1]; 0.1 µM) of 0.805 GR, a GR value (Flavopiridol [1]; 0.3162 µM) of -0.16 GR and a GR value (Flavopiridol [1]; 1 µM) of -0.885 GR. The GR value ([2]; 0.0001 µM) was 0.988 GR, the GR value ([2]; 0.0003162 µM) was 1 GR and the GR value ([2]; 0.001 µM) was 1.08 GR. The GR value ([2]; 0.003162 µM) was 0.985 GR, the GR value ([2]; 0.01 µM) was 0.471 GR and the GR value ([2]; 0.03162 µM) was -0.689 GR. For the same cell line, the GR value ([2]; 0.1 µM) was -0.797 GR, the GR value ([2]; 0.3162 µM) was -0.791 GR and the GR value ([2]; 1 µM) was -0.761 GR. The GR value (THZ531; 0.0001 µM) was 0.932 GR, the GR value (THZ531; 0.0003162 µM) was 1.02 GR and the GR value (THZ531; 0.001 µM) was 0.99 GR. It also gave a GR value (THZ531; 0.003162 µM) of 1.04 GR, a GR value (THZ531; 0.01 µM) of 0.976 GR and a GR value (THZ531; 0.03162 µM) of 0.879 GR. It also gave a GR value (THZ531; 0.1 µM) of -0.437 GR, a GR value (THZ531; 0.3162 µM) of -0.852 GR and a GR value (LEE011/Ribociclib; 0.001 µM) of 1.01 GR. It also gave a GR value (LEE011/Ribociclib; 0.003162 µM) of 0.914 GR, a GR value (LEE011/Ribociclib; 0.01 µM) of 0.863 GR and a GR value (LEE011/Ribociclib; 0.03162 µM) of 1.02 GR. It also gave a GR value (LEE011/Ribociclib; 0.1 µM) of 0.922 GR, a GR value (LEE011/Ribociclib; 0.3162 µM) of 0.984 GR and a GR value (LEE011/Ribociclib; 1 µM) of 0.933 GR. The GR value (LEE011/Ribociclib; 3.162 µM) was 0.963 GR, the GR value (LEE011/Ribociclib; 10 µM) was 0.933 GR and the GR value (BSJ-03-123; 0.001 µM) was 0.987 GR. It also gave a GR value (BSJ-03-123; 0.003162 µM) of 0.865 GR, a GR value (BSJ-03-123; 0.01 µM) of 0.969 GR and a GR value (BSJ-03-123; 0.03162 µM) of 0.935 GR. It also gave a GR value (BSJ-03-123; 0.1 µM) of 0.956 GR, a GR value (BSJ-03-123; 0.3162 µM) of 0.882 GR and a GR value (BSJ-03-123; 1 µM) of 0.743 GR. It also gave a GR value (BSJ-03-123; 3.162 µM) of 0.621 GR, a GR value (BSJ-03-123; 10 µM) of -0.43 GR and a GR value ([3]; 0.001 µM) of 0.974 GR. The GR value ([3]; 0.003162 µM) was 0.907 GR, the GR value ([3]; 0.01 µM) was 0.898 GR and the GR value ([3]; 0.03162 µM) was 0.971 GR. The GR value ([3]; 0.1 µM) was 1.01 GR, the GR value ([3]; 0.3162 µM) was 1 GR and the GR value ([3]; 1 µM) was 0.849 GR. For the same cell line, the GR value ([3]; 3.162 µM) was 0.69 GR, the GR value ([3]; 10 µM) was 0.297 GR and the GR value ([4]; 0.0003162 µM) was 0.999 GR. It also gave a GR value ([4]; 0.001 µM) of 1.05 GR, a GR value ([4]; 0.003162 µM) of 1.04 GR and a GR value ([4]; 0.01 µM) of 0.985 GR. It also gave a GR value ([4]; 0.03162 µM) of 1.05 GR, a GR value ([4]; 0.1 µM) of 1.09 GR and a GR value ([4]; 0.3162 µM) of 1.02 GR. The GR value ([4]; 1 µM) was 1.09 GR, the GR value ([4]; 3.162 µM) was 0.993 GR and the “GR50, 72 h” value (Taselisib/GDC0032) was 0.168 µM. The “GR50, 72 h” value (Luminespib/NVP-AUY922) was 0.00363 µM, the “GR50, 72 h” value (Olaparib/AZD2281) was 3.46 µM and the “GR50, 72 h” value (Paclitaxel) was 0.000215 µM. The “GR50, 72 h” value (Flavopiridol [5]) was 0.237 µM, the “GR50, 72 h” value (Doxorubicin) was 0.00119 µM and the “GR50, 72 h” value (BSJ-01-175) was 0.00928 µM.
